Measurements from US9790185B2, “Process for the preparation of regorafenib and its crystalline forms” (SHILPA MEDICARE LIMITED, priority 2014, dated 2017).
Like-named read-outs stand apart in the source and are kept apart here.

Legend:
[1] = cited from earlier work
[2] = background description of the drug substance; cited from earlier work
[3] = system: tumour models including colorectal tumour models; conditions: preclinical studies; broad spectrum of tumour models including colorectal; mediated by antiangiogenic and antiproliferative effects; cited from earlier work
[4] = Stability on handling and storage of crystalline forms; conditions: without any significant or measurable change in morphology and physicochemical characteristics
Description: (§1) The merit of the process according to the present invention resides in that product isolated after drying is directly obtained as crystalline Form I of Regorafenib (I). Said material is found devoid of any other crystal lattice and is adequately stable to handle and store for longer time (at least up to more than 6 months) without any significant or measurable change in its morphology and physicochemical characteristics. Crystalline Form I of Regorafenib (I) obtained according to the process of the present invention results in the final API purity by of more than 99.5% w/w, and found to be anhydrous with moisture content of not more than 0.5%.
as §1, with “Form III” for “Form I”, “by HPLC” for “by”

SMILES | solubility ([1]; in 2-propanol) | solubility ([1]; in PEG 400 (macrogol)) | solubility ([1]; in acetone) | solubility ([1]; in acetonitrile) | solubility ([1]; in dichloromethane) | solubility ([1]; in dilute acid solution) | solubility ([1]; in dilute alkaline solution) | solubility ([1]; in ethanol) | solubility ([1]; in ethyl acetate) | solubility ([1]; in glycerine) | solubility ([1]; in methanol) | solubility ([1]; in n-heptane) | solubility ([1]; in propylene glycol) | solubility ([1]; in toluene) | solubility ([1]; in water) | hygroscopicity [2] | antitumour activity [3] | time adequately stable to handle and store [4]
CNC(=O)c1cc(Oc2ccc(NC(=O)Nc3ccc(Cl)c(C(F)(F)F)c3)c(F)c2)ccn1 [Regorafenib, 4-[4-({[4-chloro-3-(trifluoromethyl)phenyl]carbamoyl}amino)-3-fluorophenoxy]-N-methylpyridine-2-carboxamide] | slightly soluble | soluble | sparingly soluble | slightly soluble | slightly soluble | practically insoluable | practically insoluable | slightly soluble | slightly soluble | practically insoluable | slightly soluble | practically insoluable | slightly soluble | practically insoluable | practically insoluable | not hygroscopic | demonstrated antitumour activity | 
CNC(=O)c1cc(Oc2ccc(NC(=O)Nc3ccc(Cl)c(C(F)(F)F)c3)c(F)c2)ccn1 [crystalline Form I of Regorafenib (I), 4-[4-({[4-chloro-3-(trifluoromethyl)phenyl]carbamoyl}amino)-3-fluorophenoxy]-N-methylpyridine-2-carboxamide] |  |  |  |  |  |  |  |  |  |  |  |  |  |  |  |  |  | more than 6 months
